Test results published in patent EP2753335B1, “AN ANTHRACYCLINE FOR THE TREATMENT OF SEPSIS” (Instituto de Medicina Molecular, priority 2011, dated 2013).
Structures can show the parent of a compound that is named as a salt.

Key:
[1] = test system: C57BL/6 mice subjected to CLP; experiment: Cecal ligation and puncture (CLP) mouse model of severe sepsis, survival; type: in vivo; conditions: i.p. in PBS at the time of CLP and 24hrs later, total 1.2µg/g body weight, no antibiotic; wildtype C57BL/6
Protocol: We choose the cecal ligation and puncture (CLP) mouse model to investigate the in vivo effects of epirubicin. In CLP, sepsis results from a polymicrobial infectious abdominal origin, leading to bacteraemia and a systemic inflammatory response^15.
Animal care and experimental procedures were conducted in accordance with Portuguese and US guidelines and regulations after approval by the respective local committees (Instituto de Medicina Molecular and Instituto Gulbenkian de Ciência). All mice used were 8-12 weeks old. Mice were bred and maintained under specific pathogen-free (SPF) conditions. C57BL/6 and C57BL/6 ATM^-/- were obtained from the Instituto Gulbenkian de Ciência (a kind gift from Dr. Vasco Barreto). C57BL/6 Nrf2^-/- mice were provided originally from the RIKEN BioResource Center (Koyadai, Tsukuba, Ibaraki, Japan)^31 and subsequently at the Institute Gulbenkian de Ciência. Cecal Ligation and Puncture was performed as described previously^15.

IL-1β [2] = experiment: Concentration-response validation: IL-1β production by E. coli challenged THP-1 cells; type: cell-based, human
Protocol: (§1) • Figure 1 represents a primary screen to identify compounds in the Spectrum Collection library that inhibit the secretion of TNF and IL-1β. (A) it is a two-dimension plot of TNF and IL-1β production Z scores calculated upon THP-1 cells challenge with PFA-fixed E. coli for 24 hours in the presence of 10µM of each compound. The square defines the area in which compounds are considered primary hits, i.e., inhibiting both TNF and IL-1β, (B) represents the IL-1β and TNF production by E. coli challenged THP-1 cells (4 hours) after a pre-incubation (1 hour) with increasing concentrations of epirubicin. Results shown represent mean ± standard deviation from triplicate samples in one of 3 independent assays. (C) is a transcriptional profiling of THP-1 cell line response to epirubicin and unsupervised clustering of microarray expression profiles. […] Plots depict relative expression of IL-1β, TNF, CCL2, CXCL10, STAT1, STAT2, START4 and STAT5a as assessed by qRT-PCR in E. coli challenged THP-1 cells (4 hours) after a pre-incubation (1 hour) with 5µM epirubicin. […] Results shown represent mean values ± SEM from triplicate readings per animal. […] (D) relates to the expression of IL-1β, TNF, CCL2 and CXCL10 as assessed by qRT-PCR in THP-1 cells treated as in (C). […]

muHV-4 virus = experiment: Clearance of a secondary intranasal infection one week after administration; type: in vivo; conditions: compared with control mice, unpublished data
IL-1β [3] = experiment: In vitro chemical screen (Spectrum collection): IL-1β secretion by E. coli challenged THP-1 cells, DAS-ELISA; type: cell-based, human; conditions: THP-1 cells, 10µM compound for 1 hour, then PFA-fixed E. coli (MOI 20) for 24 hours
Protocol: (§2) We identified 45 leading candidates (Figure 1A and Table I) that inhibited both cytokines.
(§3) THP-1 human monocytes (American Tissue Culture Collection-ATCC TIB-202) were plated in 96 well plates at 10^6 cell/ml and incubated with each one of ∼2320 compounds included in the Spectrum collection (Microsource Discovery Systems, Gaylordsville, CT) at 10µM for 1 hour. Cells were then challenged with 4% PFA-fixed DH5α E.coli at a Multiplicity of Infection (MOI) of 20 bacterial cells per THP-1 cell for an additional 24 hours. The cell supernatants were collected and IL-1β and TNF cytokines quantified by DAS-ELISA, using Human IL-1β/IL-1F2 DuoSet® and Human TNF DuoSet® (R&D Systems ®), respectively, according to company's protocol.
(§4) We generated a working subset of The RNAi Consortium (TRC) shRNA lentiviral vector library ^33,33 that allows for the silencing of most of the genes that are either human kinases or phosphatases. This subset was composed of 1440 individually arrayed lentiviral shRNA vectors targeting ∼700 genes, after selecting the most efficient shRNAs (two on average) based on available silencing efficiency data from the Broad Institute of MIT and Harvard. THP-1 cells were plated in 96 well plates at 10^6 cell/ml and infected with shRNA-expressing lentivirus. 48 hrs later infected cells were selected with puromycin. After the 3 days of selection, plates were duplicated. One of the plates was used to measure the cell number using Alamar Blue® cell viability assay (Invitrogeia®), according to manufacturer's instructions. In the other plate, cells were stimulated with 4% PFA-fixed DH5α E.coli at a Multiplicity of Infection (MOI) of 20 bacterial cells per THP-1 cell. Twenty-four hours after stimulation, cell supernatants were collected and IL-1β and TNF cytokines quantified by DAS-ELISA. All data values from IL-1β and TNF secretion assays were normalized by dividing the amount of IL-1β and TNF in the conditioned media 24, 12, 8, 6, 4 or 2 hrs after E. coli stimulation by the number of cells in each well and then by the average concentration per cell of the plate. Results were logarithmic natural transformed. Scores were sorted in ascending order and graphed. We calculated 1.5 SDEVs above and below the mean to identify the genes that changed IL-1β and TNF secretion when silenced. The same approach was used to identify the compounds that changed IL-1β and TNF secretion. The selected genes were submitted to two or more rounds of phenotypic validation.

TNF [4] = experiment: In vitro chemical screen (Spectrum collection): TNF secretion by E. coli challenged THP-1 cells, DAS-ELISA; type: cell-based, human; conditions: THP-1 cells, 10µM compound for 1 hour, then PFA-fixed E. coli (MOI 20) for 24 hours
Protocol: as §2, §3, §4

TNF [5] = experiment: Concentration-response validation: TNF production by E. coli challenged THP-1 cells; type: cell-based; conditions: Homo sapiens; E. coli challenged THP-1 cells (4 hours) after pre-incubation (1 hour) with increasing concentrations; read-out: half-inhibitory concentration (IC50) for TNF
Protocol: as §1

THP-1 cells = experiment: Autophagy induction in THP-1 cells, flow cytometry with Cyto-ID Green; type: cell-based, human; conditions: KU-55933 2µM plus epirubicin 1µM (1 hour), PFA-fixed E. coli 4 hours

| Structure (SMILES) | increase of survival of mice subjected to CLP [1] [%] | IC50 (IL-1β [2]; Homo sapiens, THP-1, read-out: half-inhibitory concentration (IC50) for IL-1β) [nM] | immune competence: clearance of secondary intranasal muHV-4 infection (muHV-4 virus) | Z score IL1b (IL-1β [3]) | Z score TNFa (TNF [4]) | IC50 (TNF [5]) [nM] | rescue of epirubicin-mediated IL-1β down-regulation (IL-1β [2]; KU-55933 2µM together with epirubicin 1µM, THP-1 cells, E. coli 4 hours) | effect of ATM inhibitor pre-treatment on epirubicin-induced autophagy (THP-1 cells) |
| --- | --- | --- | --- | --- | --- | --- | --- | --- |
| COc1cccc2c1C(=O)c1c(O)c3c(c(O)c1C2=O)C[C@@](O)(C(=O)CO)C[C@@H]3O[C@H]1C[C@H](N)[C@@H](O)[C@H](C)O1 [Epirubicin hydrochloride] | ~80 | 400 | not immunocompromised | -1,212875226 | -4,474857631 | 500 | – | – |
| O=c1cc(-c2cccc3c2Sc2ccccc2S3)oc(N2CCOCC2)c1 [KU-55933] | – | – | – | – | – | – | could be rescued | eliminates this effect |
